According to ChEMBL document CHEMBL3425482, “Structure-guided design and optimization of dipeptidyl inhibitors of norovirus 3CL protease. Structure-activity relationships and biochemical, X-ray crystallographic, cell-based, and in vivo studies” (J Med Chem, 2015):
pEC50, pIC50: −log10 of the molar value.

Test system: not listed separately
Assay: Inhibition of Norovirus recombinant 3CL protease using Edans-EPDFHLQGPEDLAK-Dabcyl as substrate for 30 mins by fluorometry

Going from `O=C(N[C@@H](CC1CCCCC1)C(=O)N[C@@H](C[C@@H]1CCNC1=O)C(O)S(=O)(=O)O)OCc1ccccc1Cl` (stereo partly specified) to `O=C(N[C@@H](CC1CCCCC1)C(=O)N[C@@H](C[C@@H]1CCNC1=O)C(O)S(=O)(=O)O)OCc1ccccc1` (stereo partly specified), the pIC50 rises from 6.15 to 6.40 (0.25 log units). The second is the more potent here.

First: O=C(N[C@@H](CC1CCCCC1)C(=O)N[C@@H](C[C@@H]1CCNC1=O)C(=O)C(=O)NC1CC1)OCc1cccc(Br)c1
Second: O=C(N[C@@H](CC1CCCCC1)C(=O)N[C@@H](C[C@@H]1CCNC1=O)C(=O)C(=O)NC1CC1)OCc1cccc(F)c1
The pIC50 of the first is 0.36 log units higher: 5.82 for the first, 5.46 for the second.

Compared with `CC(C)C[C@H](NC(=O)OCc1cccc(Cl)c1)C(=O)N[C@H](C=O)C[C@@H]1CCNC1=O`, `N#Cc1cccc(COC(=O)N[C@@H](CC2CCCCC2)C(=O)N[C@H](C=O)C[C@@H]2CCNC2=O)c1` is lower in pIC50: 6.05 for the first, under 5.00 for the second. The first is the more potent here.

Compared with `CCOP(=O)(OCC)C(O)[C@H](C[C@@H]1CCNC1=O)NC(=O)[C@H](CC1CCCCC1)NC(=O)OCc1ccccc1F` (stereo partly specified), `CC(C)(C)OC(=O)Nc1cccc(COC(=O)N[C@@H](CC2CCCCC2)C(=O)N[C@H](C=O)C[C@@H]2CCNC2=O)c1` is higher in pIC50: under 5.00 for the first, 5.35 for the second.

Test system: Norovirus
Assay: Antiviral activity against Norovirus infected in human HG23 cells
Type: functional, cell-based

`O=C(N[C@@H](CC1CCCCC1)C(=O)N[C@@H](C[C@@H]1CCNC1=O)C(O)S(=O)(=O)O)OCc1ccccc1Cl` (stereo partly specified) and `O=C(N[C@@H](CC1CCCCC1)C(=O)N[C@@H](C[C@@H]1CCNC1=O)C(O)S(=O)(=O)O)OCc1ccccc1` (stereo partly specified) are within 0.2 log units of each other in pEC50: 7.15 for the first, 7.22 for the second.

`O=C(N[C@@H](CC1CCCCC1)C(=O)N[C@@H](C[C@@H]1CCNC1=O)C(=O)C(=O)NC1CC1)OCc1cccc(Br)c1` and `O=C(N[C@@H](CC1CCCCC1)C(=O)N[C@@H](C[C@@H]1CCNC1=O)C(=O)C(=O)NC1CC1)OCc1cccc(F)c1` are within 0.2 log units of each other in pEC50: 6.70 for the first, 6.52 for the second.

Compared with `CC(C)C[C@H](NC(=O)OCc1cccc(Cl)c1)C(=O)N[C@H](C=O)C[C@@H]1CCNC1=O`, `N#Cc1cccc(COC(=O)N[C@@H](CC2CCCCC2)C(=O)N[C@H](C=O)C[C@@H]2CCNC2=O)c1` is 0.30 log units lower in pEC50: 7.00 for the first, 6.70 for the second. The first is the more potent here.

Going from `CCOP(=O)(OCC)C(O)[C@H](C[C@@H]1CCNC1=O)NC(=O)[C@H](CC1CCCCC1)NC(=O)OCc1ccccc1F` (stereo partly specified) to `CC(C)(C)OC(=O)Nc1cccc(COC(=O)N[C@@H](CC2CCCCC2)C(=O)N[C@H](C=O)C[C@@H]2CCNC2=O)c1`, the pEC50 rises from under 5.70 to 5.82.
